Patent publication US20240158446A1, “CYCLIC COMPOUND HAVING SELECTIVE INHIBITORY ACTION ON KRAS OVER HRAS AND NRAS” (CHUGAI SEIYAKU KABUSHIKI KAISHA, priority 2021, published 2024)
Read-outs that look alike come from different tables or passages of the source.

How the values were obtained:
[1] = molecular target: GDP-bound KRAS wild-type protein (Homo sapiens, UniProt P01116); assay: Binding to KRAS by surface plasmon resonance (SPR), Single Cycle Kinetics
[2] = molecular target: GDP-bound NRAS wild-type protein (Homo sapiens, UniProt P01111); assay: Binding to NRAS by surface plasmon resonance (SPR), Single Cycle Kinetics; settings: for NRAS/KRAS (ratio of KD value for NRAS to KD value for KRAS) / ratio of the KD value with respect to GDP-bound NRAS wild-type protein to the KD value with respect to KRAS: SPR; for NRAS/KRAS (ratio of KD value for NRAS to KD value for KRAS): GDP-bound NRAS wild-type protein vs GDP-bound KRAS wild-type protein
[3] = molecular target: GDP-bound HRAS wild-type protein (Homo sapiens, UniProt P01112); assay: Binding to HRAS by surface plasmon resonance (SPR), Single Cycle Kinetics; settings: for HRAS/KRAS (ratio of KD value for HRAS to KD value for KRAS) / ratio of the KD value with respect to GDP-bound HRAS wild-type protein to the KD value with respect to KRAS: SPR; for HRAS/KRAS (ratio of KD value for HRAS to KD value for KRAS): GDP-bound HRAS wild-type protein vs GDP-bound KRAS wild-type protein
[4] = system: human lung cancer strain NCI-H441;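 note: cell proliferation inhibition after four days measured by CellTiter-Glo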
[5] = SPR, Single Cycle Kinetics, 1:1 binding model, GDP-bound KRAS wild-type protein, read-out: KRAS KD
[6] = SPR, Single Cycle Kinetics, GDP-bound KRAS wild-type protein, read-out: KRAS KD
[7] = SPR, Single Cycle Kinetics, 1:1 binding model, read-out: KD value with respect to GDP-bound KRAS wild-type protein
[8] = read-out: NCI-H441 cell proliferation inhibitory activity, 50% proliferation inhibitory concentration (IC50 value), NCI-H441, four days, CellTiter-Glo

Chain of GDP-bound HRAS wild-type protein (P01112 whole entry): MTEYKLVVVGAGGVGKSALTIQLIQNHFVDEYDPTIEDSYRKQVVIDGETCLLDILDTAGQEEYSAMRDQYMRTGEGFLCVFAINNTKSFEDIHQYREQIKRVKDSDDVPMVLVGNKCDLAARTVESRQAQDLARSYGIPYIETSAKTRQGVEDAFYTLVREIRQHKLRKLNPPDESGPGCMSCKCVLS
Chain of GDP-bound KRAS wild-type protein (P01116 whole entry): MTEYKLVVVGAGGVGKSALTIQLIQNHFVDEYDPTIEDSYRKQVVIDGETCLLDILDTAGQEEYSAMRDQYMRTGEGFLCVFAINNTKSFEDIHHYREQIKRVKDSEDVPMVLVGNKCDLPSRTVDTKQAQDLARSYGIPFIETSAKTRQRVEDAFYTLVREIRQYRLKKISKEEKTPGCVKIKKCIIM
Chain of GDP-bound NRAS wild-type protein (P01111 whole entry): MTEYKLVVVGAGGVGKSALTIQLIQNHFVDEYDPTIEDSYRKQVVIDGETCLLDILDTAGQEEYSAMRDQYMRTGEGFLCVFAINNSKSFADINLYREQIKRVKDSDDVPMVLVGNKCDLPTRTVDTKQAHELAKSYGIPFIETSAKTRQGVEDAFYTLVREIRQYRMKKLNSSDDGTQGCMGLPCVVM

Compound | Kd [1, 5] [nM] | NRAS/KRAS (ratio of KD value for NRAS to KD value for KRAS) ([2]; KD ratio class) | HRAS/KRAS (ratio of KD value for HRAS to KD value for KRAS) ([3]; KD ratio class) | IC50 [4] [nM] | Kd [1, 6] [nM] | NRAS/KRAS (ratio of KD value for NRAS to KD value for KRAS) [2] | HRAS/KRAS (ratio of KD value for HRAS to KD value for KRAS) [3] | further results
CCO[C@@H]1C[C@H]2C(=O)NC3(CCC3)C(=O)N(C)[C@@H](C3CCCC3)C(=O)N(C)[C@H](C)CC(=O)N(C)[C@@H](CC3CCCC3)C(=O)N[C@@H]([C@@H](C)CC)C(=O)N(C)CC(=O)N(C)[C@H]3C/C=C\CCN(C3=O)[C@@H](Cc3ccc(C)cc3)C(=O)N(C)CC(=O)N[C@@H](CCc3cc(F)c(C(F)(F)F)c(F)c3)C(=O)N2C1 [PP1413] | 0.42 | B (a compound having 3 or more and less than 10 is denoted as B) | B (a compound having 3 or more and less than 10 is denoted as B) | 62.5 |  |  |  | 
CCCOC[C@H]1C(=O)N[C@@H]([C@@H](C)CC)C(=O)N(C)CC(=O)N(C)[C@H]2C/C=C\CCN(C2=O)[C@@H](Cc2ccc(C)cc2)C(=O)N(C)CC(=O)N[C@@H](CCc2ccc(C(F)(F)F)c(OC)c2)C(=O)N2C[C@@H](C)C[C@H]2C(=O)NC2(CC(C)(C)C2)C(=O)N(C)[C@@H](C2CCCC2)C(=O)N(C)[C@H](C(=O)N(C)CC)CC(=O)N1C [PP2461] |  |  |  | 10.6 | 0.15 | A (a compound having 10 or more and less than 20 is denoted as A) | A (a compound having 10 or more and less than 20 is denoted as A) | 
C#CC[C@H]1C(=O)N[C@@H]([C@@H](C)CC)C(=O)N(C)CC(=O)N(C)[C@H]2CC[C@@H](C)CN(C2=O)[C@@H](Cc2ccc(C(F)(F)F)cc2)C(=O)N(C)CC(=O)N[C@@H](CCc2ccc(C(F)(F)F)c(Cl)c2)C(=O)N2CCC[C@H]2C(=O)NC2(CCCC2)C(=O)N(C)[C@@H](C2CCCC2)C(=O)N(C)[C@H](C(=O)N(C)C)CC(=O)N1C [PP1340] | 0.081 | B (a compound having 3 or more and less than 10 is denoted as B) | B (a compound having 3 or more and less than 10 is denoted as B) | 10.9 |  |  |  | 
CCC[C@H]1C(=O)N[C@@H]([C@@H](C)CC)C(=O)N(C)CC(=O)N(C)[C@H]2C/C=C\CCN(C2=O)[C@@H](CC2CCC(F)(F)CC2)C(=O)N(C)CC(=O)N[C@@H](CCc2ccc(C(F)(F)F)c(OC)c2)C(=O)N2C[C@@H](C)C[C@H]2C(=O)N(C)C2(CCC2)C(=O)N(C)[C@@H](C2CCCC2)C(=O)N(C)[C@H](C(=O)N(C)C)CC(=O)N1C [PP2376] |  |  |  | 4.8 | 0.28 | A (a compound having 10 or more and less than 20 is denoted as A) | A (a compound having 10 or more and less than 20 is denoted as A) | 
CCO[C@@H]1C[C@H]2C(=O)NC3(CCC3)C(=O)N(C)[C@@H](C3CCCC3)C(=O)N(C)[C@H](C(=O)N3CCOCC3)CC(=O)N(C)[C@@H](CC(F)F)C(=O)N[C@@H]([C@@H](C)CC)C(=O)N(C)CC(=O)N(C)[C@H]3C/C=C\CCN(C3=O)[C@@H](Cc3ccc(C(F)(F)F)cc3)C(=O)N(C)CC(=O)N[C@@H](CCc3cc(F)c(C(F)(F)F)c(F)c3)C(=O)N2C1 [PP1285] | 0.15 | AA (a compound having 20 or more is denoted as AA) | A (a compound having 10 or more and less than 20 is denoted as A) | 24.6 |  |  |  | 
CCO[C@@H]1C[C@H]2C(=O)NC3(CC(C)(C)C3)C(=O)N(C)[C@@H](C3CCCC3)C(=O)N(C)[C@H](C(=O)N(CC)CC)CC(=O)N(C)[C@@H](COC)C(=O)N[C@@H]([C@@H](C)CC)C(=O)N(C)CC(=O)N(C)[C@H]3C/C=C\CCN(C3=O)[C@@H](Cc3ccc(C)cc3)C(=O)N(C)CC(=O)N[C@@H](CCc3ccc(C(F)(F)F)c(OC)c3)C(=O)N2C1 [PP2398] |  |  |  | 11.4 | 0.23 | A (a compound having 10 or more and less than 20 is denoted as A) | A (a compound having 10 or more and less than 20 is denoted as A) | 
CCCOC[C@H]1C(=O)N[C@@H]([C@@H](C)CC)C(=O)N(C)CC(=O)N(C)[C@H]2C/C=C\CCN(C2=O)[C@@H](CC2CCC(F)(F)CC2)C(=O)N(C)CC(=O)N[C@@H](CCc2cc(F)c(C(F)(F)F)c(F)c2)C(=O)N2C[C@H](OCC)C[C@H]2C(=O)NC2(CC(C)(C)C2)C(=O)N(C)[C@@H](C(CC)CC)C(=O)N(C)[C@H](C(=O)N(C)C)CC(=O)N1C [PP2472] |  |  |  | 42.3 | 0.58 | A (a compound having 10 or more and less than 20 is denoted as A) | A (a compound having 10 or more and less than 20 is denoted as A) | 
CCC[C@H]1C(=O)N[C@@H]([C@@H](C)CC)C(=O)N(C2CC2)CC(=O)N(C)[C@H]2C/C=C\CCN(C2=O)[C@@H](Cc2ccc(C(F)(F)F)cc2)C(=O)N(C)CC(=O)N[C@@H](CCc2cc(F)c(C(F)(F)F)c(F)c2)C(=O)N2C[C@H](OCC)C[C@H]2C(=O)N(C)C2(CCC2)C(=O)N(C)[C@@H](C2CCCC2)C(=O)N(C)[C@H](C(=O)N2CCCC2)CC(=O)N1C [PP3112] |  |  |  |  | 3.1 | A (a compound having 10 or more and less than 20 is denoted as A) | B (a compound having 3 or more and less than 10 is denoted as B) | Kd [1, 7]: 3.1 nM; ratio of the KD value with respect to GDP-bound NRAS wild-type protein to the KD value with respect to KRAS [2]: A (a compound having 10 or more and less than 20 is denoted as A); ratio of the KD value with respect to GDP-bound HRAS wild-type protein to the KD value with respect to KRAS [3]: B (a compound having 3 or more and less than 10 is denoted as B); IC50 [4, 8]: 32.4 nM
CCC(CC)[C@H]1C(=O)N(C)[C@H](C(=O)N(C)C)CC(=O)N(C)[C@@H](COC)C(=O)N[C@@H]([C@@H](C)CC)C(=O)N(C2CC2)CC(=O)N(C)[C@H]2C/C=C\CCN(C2=O)[C@@H](Cc2ccc(C)cc2)C(=O)N(C)CC(=O)N[C@@H](CCc2cc(F)c(C(F)(F)F)c(F)c2)C(=O)N2C[C@H](OC(C)C)C[C@H]2C(=O)NC2(CC(C)(C)C2)C(=O)N1C [PP2572] |  |  |  | 82.7 |  |  |  | Kd ([1]; SPR Single Cycle Kinetics, GDP-bound KRAS wild-type protein, 1:1 binding model, read-out: KRAS KD): 1.2 nM; NRAS/KRAS (ratio of KD value with respect to GDP-bound NRAS wild-type protein to KD value with respect to KRAS) ([2]; SPR KD ratio NRAS/KRAS, class symbols): A (a compound having 10 or more and less than 20 is denoted as A); HRAS/KRAS (ratio of KD value with respect to GDP-bound HRAS wild-type protein to KD value with respect to KRAS) ([3]; SPR KD ratio HRAS/KRAS, class symbols): A (a compound having 10 or more and less than 20 is denoted as A)
CCO[C@@H]1C[C@H]2C(=O)NC3(CCC3)C(=O)N(C)[C@@H](C3CCCC3)C(=O)N(C)[C@H](C(=O)N3CCOCC3)CC(=O)N(C)[C@@H](CC3CCC3)C(=O)N[C@@H]([C@@H](C)CC)C(=O)N(C)CC(=O)N(C)[C@H]3C/C=C\CCN(C3=O)[C@@H](Cc3ccc(C)cc3)C(=O)N(C)CC(=O)N[C@@H](CCc3cc(F)c(C(F)(F)F)c(F)c3)C(=O)N2C1 [PP1424] | 0.23 | A (a compound having 10 or more and less than 20 is denoted as A) | A (a compound having 10 or more and less than 20 is denoted as A) | 26.3 |  |  |  | 
CCOC[C@H]1C(=O)N[C@@H]([C@@H](C)CC)C(=O)N(C)CC(=O)N(C)[C@H]2C/C=C\CCN(C2=O)[C@@H](Cc2ccc(C(F)(F)F)cc2)C(=O)N(C)CC(=O)N[C@@H](CCc2ccc(C(F)(F)F)c(OC)c2)C(=O)N2C[C@@H](C)C[C@H]2C(=O)N(C)C2(CCC2)C(=O)N(C)[C@@H](C2CCCC2)C(=O)N(C)[C@H](C(=O)N(C)C)CC(=O)N1C [PP2359] |  |  |  | 7.6 | 0.02 | A (a compound having 10 or more and less than 20 is denoted as A) | B (a compound having 3 or more and less than 10 is denoted as B) | 
CCCO[C@@H]1C[C@H]2C(=O)NC3(CC(C)(C)C3)C(=O)N(C)[C@@H](C3CCCC3)C(=O)N(C)[C@H](C(=O)N3CCCC3)CC(=O)N(C)[C@H]3CCCCc4ccc(cc4)C[C@@H](C(=O)N(C)CC(=O)N[C@@H](CCc4ccc(C(F)(F)F)c(OC)c4)C(=O)N2C1)N1CC/C=C\C[C@@H](C1=O)N(C)C(=O)CN(C)C(=O)[C@H]([C@@H](C)CC)NC3=O [PP3094, (1S,7S,11R,13S,19S,22S,26S,29S,35S,37Z)-19-cyclopentyl-7-[2-[3-methoxy-4-(trifluoromethyl)phenyl]ethyl]-3,3′,3′,18,21,25,31,34-octamethyl-29-[(1S)-1-methylpropyl]-11-propoxy-22-(pyrrolidine-1-carbonyl)spiro[3,6,9,15,18,21,25,28,31,34,41-undecazapentacyclo[24.15.9.2^43,46.1^35,41.0^9,13]tripentaconta-37,43(52),44,46(51)-tetraene-16,1′-cyclobutane]-2,5,8,14,17,20,24,27,30,33,53-undecone] |  |  |  |  | 0.081 | A (a compound having 10 or more and less than 20 is denoted as A) | B (a compound having 3 or more and less than 10 is denoted as B) | Kd [1, 7]: 0.081 nM; ratio of the KD value with respect to GDP-bound NRAS wild-type protein to the KD value with respect to KRAS [2]: A (a compound having 10 or more and less than 20 is denoted as A); ratio of the KD value with respect to GDP-bound HRAS wild-type protein to the KD value with respect to KRAS [3]: B (a compound having 3 or more and less than 10 is denoted as B); IC50 [4, 8]: 2.2 nM
